Earlier results in patent US20080085858A1, “Pharmaceutical Composition” (KYOWA HAKKO KOGYO CO., LTD., priority 2004, published 2008).

How the values were obtained:
[1] = test system: delayed-type allergic reaction in the skin; conditions: animal model; Non-patent Document 1
[2] = test system: chronic dermatitis models; conditions: Non-patent Document 2

## COc1ccc([C@]2(C#N)CC[C@@H](C(=O)O)CC2)cc1OC1CCCC1 [SB207499]
[1]
  Effect on delayed-type allergic reaction in the skin: inhibit a delayed-type allergic reaction in the skin
[2]
  Therapeutic effects on chronic dermatitis models: exhibit therapeutic effects on chronic dermatitis models
